Assay results: patent US5506252A, “Substituted N-heteroaryl and N-aryl-1,2-diaminocyclobutene-3,4-diones” (American Home Products Corporation, priority 1994, dated 1996)

Each compound was assayed on Isolated Rat Bladder Strips (assay: Inhibition of contractions in isolated rat bladder strips (smooth muscle relaxing activity, KCl-enhanced contractions)). Conditions: 0.5 h, 15 mM KCl added, 30 minute challenge, read-out: IC50 (concentration required to elicit 50% inhibition of pre-drug contractile activity).
Type: cell-based, Sprague-Dawley rats
From the text: The smooth muscle relaxing activity of the compounds of this invention was established in accordance with standard pharmaceutically accepted test procedures in representative compounds as follows:
Sprague-Dawley rats (150-200 g) are rendered unconscious by CO2 asphyxiation and then euthanized by cervical dislocation. The bladder is removed into warm (37 deg. C.) physiological salt solution (PSS) of the following composition (mM): NaCl, 118.4; KCl, 4.7; CaCl2, 2.5; […]; NaHCO3, 24.9; KH2 PO4, 1.2; glucose, 11.1; EDTA, 0.023; gassed with […]; pH 7.4. The bladder is opened and then cut into strips 1-2 mm in width and 7-10 mm in length. The strips are subsequently suspended in a 10 mL tissue bath under an initial resting tension of 1.5 g. The strips are held in place by two surgical clips one of which is attached to a fixed hook while the other is attached to an isometric force transducer. […] The carbachol is then washed out and the tissue allowed to relax to its resting level of activity. Following one further 30 minute period of recovery, an additional 15 mM KCl are introduced into the tissue bath. This increase in KCl concentration results in a large increase in the amplitude of spontaneous contractions (and initiation of contractions in previously quiescent strips) superimposed upon a small increase in basal tone. Following stabilization of this enhanced level of contractile activity, incremental increases in the concentration of test compound or vehicle are introduced into the tissue bath. Contractile activity is measured for each compound or vehicle concentration during the last minute of a 30 minute challenge.
The isometric force developed by the bladder strips is measured using a […] to elicit 50% inhibition of pre-drug contractile activity (IC50 concentration) is calculated from this concentration-response curve.

IC50 [nM] | SMILES
1950 | CC(Nc1c(Nc2cccnc2)c(=O)c1=O)C(C)(C)C (stereo not shown) [Example 3, 3-(Pyridin-3-ylamino)-4-(1,2,2-trimethyl-propylamino)-cyclobut-3-ene-1,2-dione]
1360 | CC(Nc1c(Nc2ccncc2)c(=O)c1=O)C(C)(C)C (stereo not shown) [Example 1, 3-(Pyridin-4-ylamino)-4-(1,2,2-trimethyl-propylamino)-cyclobut-3-ene-1,2-dione]
2800 | CC(C)(C)Nc1c(Nc2cccnc2)c(=O)c1=O [Example 7, 3-Tert-butylamino-4-(pyridin-3-ylamino)-cyclobut-3-ene-1,2-dione]
15800 | O=c1c(Nc2ccncc2)c(N[C@H]2C[C@@H]3CC[C@H]2C3)c1=O (relative stereo) [Example 2, (Exo)-3-(bicyclo[2.2.1]hept-2-ylamino)-4-(pyridin-4-ylamino)-cyclobut-3,-ene-1,2-dione]
21 | CCc1cc(C#N)ccc1Nc1c(N[C@H](C)C(C)(C)C)c(=O)c1=O [Example 24, (+)-(R )-4-[3,4-Dioxo-2-(1,2,2-trimethyl-propylamino)-cyclobut-1-enylamino]-3-ethyl-benzonitrile]
1840 | CC(C)(C)Nc1c(Nc2cccc3cnccc23)c(=O)c1=O [Example 8, 3-Tert-butylamino-4-(isoquinolin-5-ylamino)-cyclobut-3-ene-1,2-dione]
290 | COc1cc(C#N)ccc1Nc1c(N[C@H](C)C(C)(C)C)c(=O)c1=O [Example 25, (+)-(R)-4-[3,4-Dioxo-2-(1,2,2-trimethyl-propylamino)-cyclobut-1-enylamino]-3-methoxy-benzonitrile]
520 | CC(Nc1c(Nc2ccc(C#N)cc2)c(=O)c1=O)C(C)(C)C (stereo not shown) [Example 21, 4-[3,4-Dioxo-2-(1,2,2-trimethyl-propylamino)-cyclobut-1-enylamino]-benzonitrile]
6340 | CC(C)(C)Nc1c(Nc2ccc3cn[nH]c3c2)c(=O)c1=O [Example 19, 3-Tert-butylamino-4-(1H-indazol-6-ylamino)-cyclobut-3-ene-1,2-dione]
8000 | CC(Nc1c(Nc2cccc3cccnc23)c(=O)c1=O)C(C)(C)C (stereo not shown) [Example 10, 3-(Quinolin-8-ylamino)-4-(1,2,2-trimethyl-propylamino)-cyclobut-3-ene-1,2-dione]

Same assay, conditions: 0.5 h, at 30 μM, 15 mM KCl added, 30 minute challenge, read-out: Inhibition of Force (%) at (x) μM

SMILES | inhibition at 30 µM [%]
Nc1c(Nc2cccnc2)c(=O)c1=O [Example 6] | 31
CC(C)(C)Nc1c(Nc2cnc3ccccc3c2)c(=O)c1=O [Example 14, 3-Tert-butylamino-4-(quinolin-3-ylamino)-cyclobut-3-ene-1,2-dione] | 51
Nc1c(Nc2cccc3cnccc23)c(=O)c1=O [Example 9, 3-Amino-4-(isoquinolin-5-ylamino)-cyclobut-3-ene-1,2-dione] | 43
